Assay results taken from patent US6156789A, “Method for treating abnormal cell proliferation in the brain” (Rhone-Poulenc Rorer S.A., priority 1998, dated 2000).
“And” between values parts separate entries of the source, which are not always exact repeats. Equal entries are not always repeated. Where two headings read alike, the source gives them in different places.

Key:
[1] = Plasma kinetics of Compound A after i.v. injection in mice (HPLC); format: in vivo, C3H/HeN female mice; conditions: for Cmax at 2 min: read-out: observed maximum plasma concentration
Procedure: (§1) Mammary C/16 adenocarcinomas were implanted in C3H/HeN female mice. At least 7 days later, 4α,10β-diacetoxy-2α-benzoyloxy-5β,20-epoxy-1β-hydroxy-7β,8β-methylene-9-oxo-19-nor-11-taxen-13α-yl (2R,3S)-3-tert-butoxycarbonylamino-2-hydroxy-3-phenylpropionate ("Compound A") was administered to groups of female mice at doses of 9.5, 15.4, 24.8, 40 or 60.5 mg/kg by intravenous injection under 0.4 or 0.5 ml/injection over 15 seconds. The body weight and date of implantation were recorded for each mouse. Blood and tissue samples were taken 2, 5, 15, 30 and 45 minutes and 1, 4, 14, 24 and 48 hours, after administration. The plasma was separated from the blood samples at 4° C. and frozen immediately. The tissue and tumors were weighed and frozen immediately (-20° C.).
(§2) The plasma and tissue samples were then analyzed for the concentration of Compound A. The plasma was assayed by high pressure liquid chromatography with spectrophotometric detection. For the tissue, liver, heart, kidney, lung, spleen and tumor tissue, samples were assayed by a first method, while a second method was used for the brain tissue analyzed. In the first method, 0.2 g of tissue was combined with 2 ml of sodium phosphate buffer 0.1 M (pH:7) and homogenized. The homogenate was centrifuged and 0.5 ml of supernatant was injected into the chromatographic column. In the second method, 10 μl of standard solution was combined with 0.2 g of brain tissue. 2 ml of methanol/5% perchloric acid (50/50) were added and the mixture was homogenized. The homogenate was centrifuged and 100 μl of supernatant was injected into the chromatographic column.

[2] = Brain distribution of Compound A in mice with mammary C/16 adenocarcinomas (second method, brain tissue); format: in vivo, C3H/HeN female mice; conditions: for % of DOSE (brain) / AMOUNT In TISSUE (brain) / Brain CONC. / RATIO BRAIN/PLASMA: 40 μg/kg [sic], single mice; for Brain CONC. / RATIO BRAIN/PLASMA / Percentage of Compound A (of dose) in Brain: 40 mg/kg
Procedure: as §1, §2

CC(=O)O[C@H]1C(=O)[C@]23C[C@H]2C[C@H]2OC[C@@]2(OC(C)=O)[C@H]3[C@H](OC(=O)c2ccccc2)[C@]2(O)C[C@H](OC(=O)[C@H](O)[C@@H](NC(=O)OC(C)(C)C)c3ccccc3)C(C)=C1C2(C)C [Compound A, 4α,10β-diacetoxy-2α-benzoyloxy-5β,20-epoxy-1β-hydroxy-7β,8β-methylene-9-oxo-19-nor-11-taxen-13α-yl (2R,3S)-3-tert-butoxycarbonylamino-2-hydroxy-3-phenylpropionate]
kinetics in plasma and tumor tissue, linearity ([1]; 9.5 to 60.5 mg/kg i.v.): linear over the range studied
maximum plasma concentrations, dose linearity ([1]; 9.5 to 60.5 mg/kg i.v., 2 minutes): linear with respect to dose
Cmax at 2 min ([1]; mouse, plasma, iv, 9.5 mg/kg i.v., 2 minutes): 14 ± 1 µg/mL
Cmax at 2 min ([1]; mouse, plasma, iv, 15.4 mg/kg i.v., 2 minutes): 21 ± 2 µg/mL
Cmax at 2 min ([1]; mouse, plasma, iv, 24.8 mg/kg i.v., 2 minutes): 35 ± 2 µg/mL
Cmax at 2 min ([1]; mouse, plasma, iv, 40 mg/kg i.v., 2 minutes): 51 ± 1 µg/mL
Cmax at 2 min ([1]; mouse, plasma, iv, 60.5 mg/kg i.v., 2 minutes): 133 ± 30 µg/mL
AUC(0-t) at 4 h ([1]; mouse, plasma, iv, dose = 40 mg/kg): 35 µg·h/mL
AUC(0-inf) ([1]; mouse, plasma, iv, dose = 40 mg/kg, read-out: AUC 0 to Infinity, Plasma): 58.6 µg·h/mL
half-life ([1]; mouse, plasma, iv, dose = 40 mg/kg, read-out: t 1/2, Plasma (converted)): 4.4 h
brain and plasma AUCs at 4 hours compared ([2]; 40 mg/kg i.v.): similar
0 to infinity AUC in brain tissue compared with plasma ([2]; 40 mg/kg i.v., mouse): ten times that observed for plasma
% of DOSE (brain) ([2]; 0.03 h): 0.42% and 0.53% and 0.47% and 0.36% and 0.45%
AMOUNT In TISSUE (brain) ([2]; 0.03 h): 4.21 µg and 5.17 µg and 4.34 µg and 3.55 µg and 4.32 µg
Brain CONC. ([2]; 0.03 h, 1.8 min): 11.32 µg/g and 9.51 µg/g and 7.64 µg/g and 9.57 µg/g
RATIO BRAIN/PLASMA ([2]; 0.03 h, 1.8 min): 0.22 and 0.15
Percentage of Compound A (of dose) in Brain ([2]; 0.033 h): 0.19%
% of DOSE (brain) ([2]; 0.08 h, MEAN=b257): 0.60% and 0.49% and 0.58% and 0.56%
AMOUNT In TISSUE (brain) ([2]; 0.08 h, MEAN=b257): 6.14 µg and 4.62 µg and 5.62 µg and 5.46 µg
Brain CONC. ([2]; 0.08 h, MEAN=b257, 4.8 min): 10.69 µg/g and 13.46 µg/g and 12.56 µg/g
RATIO BRAIN/PLASMA ([2]; 0.08 h, MEAN=b257, 4.8 min): 0.27 and 0.29 and 0.34
% of DOSE (brain) ([2]; 0.25 h): 0.58% and 0.52% and 0.67% and 0.66% and 0.61%
AMOUNT In TISSUE (brain) ([2]; 0.25 h): 5.38 µg and 4.88 µg and 6.68 µg and 6.07 µg and 5.75 µg
Brain CONC. ([2]; 0.25 h, 15 min): 11.16 µg/g and 15.37 µg/g and 13.12 µg/g and 13.21 µg/g
RATIO BRAIN/PLASMA ([2]; 0.25 h, 15 min): 0.53 and 0.50 and 0.66 and 0.57
% of DOSE (brain) ([2]; 0.50 h): 0.53% and 0.45% and 0.42% and 0.39%
AMOUNT In TISSUE (brain) ([2]; 0.50 h): 4.78 µg and 4.56 µg and 3.87 µg and 3.53 µg and 4.19 µg
RATIO BRAIN/PLASMA ([2]; 0.50 h, 30 min): 0.69 and 0.75
% of DOSE (brain) ([2]; 0.75 h, MEAN=b278): 0.38% and 0.53% and 0.50% and 0.45%
AMOUNT In TISSUE (brain) ([2]; 0.75 h, MEAN=b278): 3.32 µg and 4.99 µg and 4.49 µg and 3.92 µg and 4.18 µg
Brain CONC. ([2]; 0.75 h, MEAN=b278, 45 min): 11.46 µg/g and 9.98 µg/g and 9.00 µg/g and 9.5 µg/g
% of DOSE (brain) ([2]; 1 h): 0.54% and 0.34% and 0.33% and 0.43% and 0.41%
AMOUNT In TISSUE (brain) ([2]; 1 h): 5.14 µg and 3.35 µg and 3.14 µg and 4.22 µg and 3.96 µg
Brain CONC. ([2]; 1 h, 60 min): 7.23 µg/g and 7.33 µg/g and 9.05 µg/g and 8.77 µg/g
RATIO BRAIN/PLASMA ([2]; 1 h, 60 min): 1.18 and 1.12
Percentage of Compound A (of dose) in Brain ([2]; 1 h): 0.41%
% of DOSE (brain) ([2]; 4 h): 0.34% and 0.45% and 0.36% and 0.40% and 0.39%
AMOUNT In TISSUE (brain) ([2]; 4 h): 3.27 µg and 4.27 µg and 3.40 µg and 3.67 µg and 3.65 µg
